Laboratory results: ChEMBL document CHEMBL1134828, “The synthesis of cyclic tetrapeptoid analogues of the antiprotozoal natural product apicidin” (2001)
Values after ≈ are worked out from the molar mass of the structure shown.

How the values were obtained:
Plasmodium falciparum = assay: Effective dose for antimalarial activity against Plasmodium falciparum; type: functional; conditions: read-out: ED50
Trypanosoma brucei = assay: Effective dose required for antiprotozoal activity against Trypanosoma brucei; type: functional; conditions: read-out: ED50
Leishmania donovani [1] = assay: Effective dose required for antiprotozoal activity against Leishmania donovani; type: functional; conditions: read-out: ED50
Trypanosoma cruzi [2] = assay: Effective dose required for antiprotozoal activity against Trypanosoma cruzi; type: functional; conditions: read-out: ED50
[3] = Cytotoxicity tested against KB cells of human nasopharyngeal epithelial cell line; type: functional; conditions: read-out: ED50 (the source's name)
Leishmania donovani [4] = assay: Effective dose required for antiprotozoal activity against Leishmania donovani; T: Toxicity to both mouse macrophage host cells and intracellular parasites prevented determination of antiprotozoal activity; type: functional, organism-based
Trypanosoma cruzi [5] = assay: Effective dose required for antiprotozoal activity against Trypanosoma cruzi; T: Toxicity to both mouse macrophage host cells and intracellular parasites prevented determination of antiprotozoal activity; type: functional, organism-based

**Q.** Which results are given for CCC(=O)CCCCC[C@@H]1NC(=O)[C@H]2CCCN2C(=O)[C@H]([C@@H](C)CC)NC[C@H](Cc2c[nH]c3ccccc23)NC1=O?
**A.** EC50 (Plasmodium falciparum): > 1 µg/mL; EC50 (Trypanosoma brucei): 11.1 µg/mL (≈ 19.6 µM); EC50 (Leishmania donovani [1]): > 30 µg/mL; EC50 (Trypanosoma cruzi [2]): > 30 µg/mL

**Q.** For CCC(=O)CCCCC[C@@H]1NC(=O)[C@H]2CCCN2C(=O)[C@H]([C@@H](C)CC)N(C(C)=O)C[C@H](Cc2c[nH]c3ccccc23)NC1=O, which EC50 (Plasmodium falciparum) is on record?
**A.** > 1 µg/mL

**Q.** What about the EC50 (Trypanosoma brucei) of the same compound?
**A.** 13 µg/mL (≈ 21.3 µM)

**Q.** What about the EC50 (Leishmania donovani [1]) of the same compound?
**A.** > 30 µg/mL

**Q.** And the EC50 (Trypanosoma cruzi [2])?
**A.** > 30 µg/mL

**Q.** For CCC(=O)CCCCC[C@@H]1NC(=O)[C@H]2CCCCN2C(=O)[C@H]([C@@H](C)CC)NC(=O)[C@H](Cc2cn(OC)c3ccccc23)NC1=O [APICIDIN], which EC50 (Plasmodium falciparum) is on record?
**A.** 0.22 µg/mL (≈ 0.353 µM)

**Q.** And the EC50 [3]?
**A.** 200 µg/mL (≈ 321 µM)

**Q.** And the ED50 (Leishmania donovani [4])?
**A.** Toxic

**Q.** And the EC50 (Trypanosoma brucei)?
**A.** 1.9 µg/mL (≈ 3.05 µM)

**Q.** What about the ED50 (Trypanosoma cruzi [5]) of the same compound?
**A.** Toxic
